Experimental data taken from a compilation of properties of binary mixtures (doi:10.1016/j.molliq.2019.111099).

Test: xn = mol fraction of the nth substance listed
Conditions: 101 kPa

SMILES	electrical conductivity (278.15 K, x1 = 0.0255)	electrical conductivity (283.15 K, x1 = 0.0255)	electrical conductivity (288.15 K, x1 = 0.0255)	electrical conductivity (293.15 K, x1 = 0.0255)	electrical conductivity (298.15 K, x1 = 0.0052)	electrical conductivity (298.15 K, x1 = 0.0155)	electrical conductivity (298.15 K, x1 = 0.0255)	electrical conductivity (303.15 K, x1 = 0.0255)	electrical conductivity (313.15 K, x1 = 0.0255)	electrical conductivity (318.15 K, x1 = 0.0255)	electrical conductivity (323.15 K, x1 = 0.0255)	electrical conductivity (328.15 K, x1 = 0.0255)	electrical conductivity (333.15 K, x1 = 0.0255)	electrical conductivity (298.15 K, x1 = 0.0104)	electrical conductivity (298.15 K, x1 = 0.0205)	electrical conductivity (308.15 K, x1 = 0.0255)	electrical conductivity (298.15 K, x1 = 0.05)	also measured
CCCCc1n(S(=O)(=O)O)cc[n+]1S(=O)(=O)O.O=C([O-])C(F)(F)F + CO	3.18 S/m	3.01 S/m	2.89 S/m	2.72 S/m	1.41 S/m	1.76 S/m	2.65 S/m	2.45 S/m	2.08 S/m	1.91 S/m	1.73 S/m	1.69 S/m	1.57 S/m	–	–	–	–	–
CCc1n(S(=O)(=O)O)cc[n+]1S(=O)(=O)O.O=C([O-])C(F)(F)F + CO	3.75 S/m	–	3.44 S/m	–	–	1.93 S/m	–	3.03 S/m	–	2.51 S/m	2.36 S/m	2.19 S/m	1.96 S/m	1.64 S/m	2.27 S/m	2.95 S/m	–	–
Cc1n(S(=O)(=O)O)cc[n+]1S(=O)(=O)O.O=C([O-])C(F)(F)F + CO	–	4 S/m	3.64 S/m	–	1.38 S/m	2 S/m	3.29 S/m	3.01 S/m	2.86 S/m	2.84 S/m	2.73 S/m	–	2.32 S/m	–	2.41 S/m	2.98 S/m	4.44 S/m	electrical conductivity (298.15 K, x1 = 0.08): 4.49 S/m; electrical conductivity (298.15 K, x1 = 0.1): 4.52 S/m; electrical conductivity (298.15 K, x1 = 0.12): 4.03 S/m; electrical conductivity (298.15 K, x1 = 0.15): 3.28 S/m; electrical conductivity (298.15 K, x1 = 0.18): 2.42 S/m; electrical conductivity (298.15 K, x1 = 0.2): 1.71 S/m
O=C([O-])C(F)(F)F.O=S(=O)(O)n1cc[n+](S(=O)(=O)O)c1 + CO	5.19 S/m	4.9 S/m	–	4.26 S/m	–	2.85 S/m	4.13 S/m	4.05 S/m	–	3.52 S/m	3.46 S/m	3.37 S/m	–	2.23 S/m	3.56 S/m	–	5.45 S/m	–
